The subject of this test is P388 leukemia ip, CD2F1 mice, survival T/C. Description: NCI In Vivo Anticancer Drug Screen. Data for tumor model P388 Leukemia (intraperitoneal) in CD2F1 (CDF1) mice. The following applies: endpoint: median survival time, higher = longer survival. The method, boiled down:
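Mice carrying the transplanted tumor received test compound or vehicle. Survival was recorded in each group, and the value is the treated-group measurement divided by that of the vehicle-treated control group.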

[1] abbreviates: dose: 25.0 mg/kg/injection, schedule: Q04DX003 (ip), vehicle: Klucel (hydroxypropylcellulose) (HPC).
[2] abbreviates: dose: 50.0 mg/kg/injection, schedule: Q01DX005 (ip), vehicle: saline with Tween-80.
The mark [3] stands for this setting: dose: 100.0 mg/kg/injection, schedule: Q01DX005 (ip), vehicle: saline with Tween-80.
[4] abbreviates: dose: 200.0 mg/kg/injection, schedule: Q01DX005 (ip), vehicle: saline with Tween-80.
The mark [5] stands for this setting: dose: 60.0 mg/kg/injection, schedule: Q01DX005 (ip), vehicle: Klucel (hydroxypropylcellulose) (HPC).
Setting [6] is: dose: 120.0 mg/kg/injection, schedule: Q01DX005 (ip), vehicle: Klucel (hydroxypropylcellulose) (HPC).
Setting [7] is: dose: 240.0 mg/kg/injection, schedule: Q01DX005 (ip), vehicle: Klucel (hydroxypropylcellulose) (HPC).
The mark [8] stands for this setting: dose: 30.0 mg/kg/injection, schedule: Q01DX005 (ip), vehicle: saline.
Where [9] appears, read: dose: 60.0 mg/kg/injection, schedule: Q01DX005 (ip), vehicle: saline.
Where [10] appears, read: dose: 60.0 mg/kg/injection, schedule: Q01DX005 (ip), vehicle: saline with Tween-80.
The mark [11] stands for this setting: dose: 120.0 mg/kg/injection, schedule: Q01DX005 (ip), vehicle: saline with Tween-80.
Where [12] appears, read: dose: 240.0 mg/kg/injection, schedule: Q01DX005 (ip), vehicle: saline with Tween-80.
The mark [13] stands for this setting: dose: 50.0 mg/kg/injection, schedule: Q01DX009 (ip), vehicle: Klucel (hydroxypropylcellulose) (HPC).
The mark [14] stands for this setting: dose: 100.0 mg/kg/injection, schedule: Q01DX009 (ip), vehicle: Klucel (hydroxypropylcellulose) (HPC).
[15] abbreviates: dose: 200.0 mg/kg/injection, schedule: Q01DX009 (ip), vehicle: Klucel (hydroxypropylcellulose) (HPC).

Several values for one entry are separate records, joined by “and”; a condition that tells them apart may be missing. Equal entries are not always repeated. Inconclusive results and toxic doses are left out.

Take `ClCC[N+]12CC[N+](CCCl)(CC1)C2.[Cl][Pt]([Cl])([Cl])[Cl]`: the T/C was 100 % of control (dose: 6.25 mg/kg/injection, schedule: Q01DX009 (ip), vehicle: distilled water + Tween-80) and 169 % of control (dose: 25.0 mg/kg/injection, schedule: Q01DX009 (ip), vehicle: distilled water + Tween-80).

For `O=C1N(Cl)C2(c3ccccc3)N(Cl)C(=O)N(Cl)C2(c2ccccc2)N1Cl` (stereo unspecified), the T/C reads like this: under setting [1], 103 % of control; (dose: 50.0 mg/kg/injection, schedule: Q04DX003 (ip), vehicle: Klucel (hydroxypropylcellulose) (HPC)) 110 % of control.

`CC(O)c1nc2c3ccccc3ccc2n1C` (stereo unspecified): the T/C was 96 % of control under setting [2], 93 % of control under setting [3] and 92 % of control under setting [4].

In the case of `O=C(CC(C(=O)O)N1CCNCC1)c1ccc(Cl)cc1` (stereo unspecified), the T/C was 100 % of control (dose: 50.0 mg/kg/injection, schedule: Q01DX005 (ip), vehicle: saline); 107 % of control (dose: 100.0 mg/kg/injection, schedule: Q01DX005 (ip), vehicle: saline); 101 % of control (dose: 200.0 mg/kg/injection, schedule: Q01DX005 (ip), vehicle: saline).

For `O=C1C(C2(O)C(=O)Nc3ccccc32)CCCC1C1(O)C(=O)Nc2ccccc21` (stereo unspecified), the T/C is, setting by setting: under setting [5], 90 % of control; under setting [6], 87 % of control; under setting [7], 89 % of control.

As for `C=CCN(CC=C)C1CCOC(OC)C1O` (stereo unspecified), the T/C runs as follows: under setting [8], 100 % of control and 112 % of control; under setting [9], 113 % of control [middle of 4 runs]; (dose: 120.0 mg/kg/injection, schedule: Q01DX005 (ip), vehicle: saline) 119 % of control [middle of 4 runs]; (dose: 240.0 mg/kg/injection, schedule: Q01DX005 (ip), vehicle: saline) 99 % of control and 119 % of control and 123 % of control.

As to `O=C(/C=C/c1ccccc1)O[C@@H]1CC2CC1C[C@@H]2c1cnc[nH]1` (stereo partly specified), the T/C was 98 % of control (dose: 25.0 mg/kg/injection, schedule: Q04DX002 (ip), vehicle: saline with Tween-80); 100 % of control (dose: 50.0 mg/kg/injection, schedule: Q04DX002 (ip), vehicle: saline with Tween-80); 99 % of control (dose: 100.0 mg/kg/injection, schedule: Q04DX002 (ip), vehicle: saline with Tween-80).

With `Cc1nc2c(cnn2C)c(=O)n1-c1ccccc1`, the T/C is 96 % of control (dose: 50.0 mg/kg/injection, schedule: Q01DX005 (ip), vehicle: Klucel (hydroxypropylcellulose) (HPC)); 98 % of control (dose: 100.0 mg/kg/injection, schedule: Q01DX005 (ip), vehicle: Klucel (hydroxypropylcellulose) (HPC)); 100 % of control (dose: 200.0 mg/kg/injection, schedule: Q01DX005 (ip), vehicle: Klucel (hydroxypropylcellulose) (HPC)).

Turning to `CCCCCCCCCCC(Nc1nncs1)Nc1nncs1`, the T/C under setting [10] was 96 % of control, the T/C under setting [11] was 95 % of control and the T/C under setting [12] was 95 % of control.

For the compound `O=C(O)c1cc(-c2ccc(O)c(O)c2)nc2cc3ccccc3cc12`, the T/C under setting [13] is 97 % of control, the T/C under setting [14] is 108 % of control and the T/C under setting [15] is 92 % of control.

Turning to `COc1ccc(CC2=NCCc3cc(OC)c(OC)cc32)cc1OC`, the T/C was 104 % of control (dose: 22.0 mg/kg/injection, schedule: Q01DX009 (ip), vehicle: saline); 103 % of control (dose: 33.0 mg/kg/injection, schedule: Q01DX009 (ip), vehicle: saline); 103 % of control (dose: 50.0 mg/kg/injection, schedule: Q01DX009 (ip), vehicle: saline); 102 % of control (dose: 75.0 mg/kg/injection, schedule: Q01DX009 (ip), vehicle: saline).

On to `CC(=O)Nc1ccc(OCCCN2CCOCC2)cc1`, for which the T/C runs as follows: (dose: 100.0 mg/kg/injection, schedule: Q04DX002 (ip), vehicle: Klucel (hydroxypropylcellulose) (HPC)) 102 % of control; (dose: 200.0 mg/kg/injection, schedule: Q04DX002 (ip), vehicle: Klucel (hydroxypropylcellulose) (HPC)) 101 % of control; (dose: 400.0 mg/kg/injection, schedule: Q04DX002 (ip), vehicle: Klucel (hydroxypropylcellulose) (HPC)) 95 % of control.

Turning to `C1COCCSCCOCCOCCSCCO1`, the T/C is, setting by setting: (dose: 100.0 mg/kg/injection, schedule: Q04DX003 (ip), vehicle: Klucel (hydroxypropylcellulose) (HPC)) 95 % of control; (dose: 200.0 mg/kg/injection, schedule: Q04DX003 (ip), vehicle: Klucel (hydroxypropylcellulose) (HPC)) 100 % of control; (dose: 400.0 mg/kg/injection, schedule: Q04DX003 (ip), vehicle: Klucel (hydroxypropylcellulose) (HPC)) 101 % of control.

For `O=c1[nH]c2c([N+](=O)[O-])cccc2nc1/C=C(\O)c1cccc([N+](=O)[O-])c1`, the T/C (dose: 7.5 mg/kg/injection, schedule: Q01DX005 (ip), vehicle: Klucel + Tween-80) was 94 % of control; the T/C (dose: 15.0 mg/kg/injection, schedule: Q01DX005 (ip), vehicle: Klucel + Tween-80) is 94 % of control; the T/C (dose: 30.0 mg/kg/injection, schedule: Q01DX005 (ip), vehicle: Klucel + Tween-80) was 88 % of control.

For `O=C(CNCCCCNCCCNCC(=O)C(O)C(O)C(O)CO)C(O)C(O)C(O)CO` (stereo unspecified), the T/C is 104 % of control under setting [8] and 101 % of control under setting [9].

As for `COc1cc(C(=O)OC(CN2CCOCC2)Cn2nnc3c(OC)c(OC)c(OC)cc3c2=O)cc(OC)c1OC` (stereo unspecified), the T/C reads like this: (dose: 50.0 mg/kg/injection, schedule: Q01DX009 (ip), vehicle: water) 100 % of control; (dose: 100.0 mg/kg/injection, schedule: Q01DX009 (ip), vehicle: water) 100 % of control; (dose: 200.0 mg/kg/injection, schedule: Q01DX009 (ip), vehicle: water) 108 % of control.

`Oc1cc(Cl)c(O)c(-c2ccccc2)c1Cl`: the T/C runs as follows: under setting [2], 102 % of control; under setting [3], 102 % of control; under setting [4], 90 % of control.

For `Cc1ccc(N=CN(C)C)c(Cl)c1`, the T/C (dose: 12.5 mg/kg/injection, schedule: Q04DX003 (ip), vehicle: Klucel (hydroxypropylcellulose) (HPC)) was 103 % of control and the T/C under setting [1] is 101 % of control.

As for `C/C(=N\NS(=O)(=O)c1ccc(C)cc1)c1cccs1`, the T/C is 100 % of control under setting [13], 91 % of control under setting [14] and 92 % of control under setting [15].

Consider `O=C(CC1(O)C(=O)Nc2ccccc21)c1ccc([N+](=O)[O-])cc1` (stereo unspecified), for which the T/C by setting is: under setting [10], 102 % of control; under setting [11], 95 % of control; under setting [12], 100 % of control.

As to `C=C1C(=O)OC2C(OC(=O)CC)CCCC12` (stereo unspecified), the T/C was 95 % of control under setting [5], 98 % of control under setting [6] and 110 % of control under setting [7].
